Assay [1] has as its target T1, OBP14 (Apis mellifera, UniProt A0A8U0WQC3). Briefly: biochemical. The assay is classed as binding, honeybees. The settings on record: for binding to OBP14 (in words): qualitative ranking from biosensor results; for kon: read-out: [kon] / M^-1s^-1.
Assay [2] deals with T1, OBP14. The following applies: fluorescent displacement assays, literature; cited from earlier work.
The mark [3] stands for this setting: 10^- 6[KD] /M, Table 1, KD = 1/KA from titration, Langmuir model, 1mM PBS, pH = 8.0.
The mark [4] stands for this setting: KD, from Langmuir isotherm plot, half saturation concentration (50% surface coverage).
[5] abbreviates: KD, from the kinetic measurement (titration fitted with Langmuir model).
Where [6] appears, read: Table 1, affinity constant KA = kon/koff from titration, Langmuir model, 1mM PBS, pH = 8.0.
[7] abbreviates: 10^2 [KA] /M^-1, Table 2, affinity constant KA = kon/koff from titration, Langmuir model fit.
The mark [8] stands for this setting: 10^-6 [KD] /M, Table 2, KD = 1/KA from titration, Langmuir model fit.
[9] abbreviates: Table 2, affinity constant KA = kon/koff from titration, Langmuir model fit.
Where [10] appears, read: dissociation constant of KD, control experiment, eugenol and methyl eugenol on the same sensor device.
The mark [11] stands for this setting: Table 2, association rate constant from titration fit.
Setting [12] is: Table 2, dissociation rate constant from final buffer wash fit, read-out: [ koff] / s^-1.

The structures appear in SMILES notation. Like-named read-outs stand apart in the source and are kept apart here.

T1 sequence (A0A8U0WQC3 entry or part of it): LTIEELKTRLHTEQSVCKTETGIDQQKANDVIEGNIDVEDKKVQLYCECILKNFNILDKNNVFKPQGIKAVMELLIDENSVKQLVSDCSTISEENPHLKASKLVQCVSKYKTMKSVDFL

Turning to `CC(C)=CCCC(C)=CC=O` (mixture of isomers) [Citral, (2E)-3,7-dimethylocta-2,6-dienal], the Kd is 589.2 ± 0.6 µM at OBP14 [1] (setting [3]), 550 µM at OBP14 [1] (setting [4]) and 590 µM on OBP14 [1] (setting [5]). In addition, the “10^2 [KA] /M^-1” value at OBP14 [1] (setting [6]) is recorded as 16.97 ± 0.02 10^2 M^-1. Also, the “binding to OBP14 (in words)” value at OBP14 [1] is recorded as “moderate or weak binders”. In addition, at OBP14 [1] (read-out: [koff] /s ^-1), the koff came out at 0.0035 s⁻¹.

Regarding `COc1cc(/C=C/C=O)ccc1O` [Coniferyl aldehyde, (E)-3-(4-hydroxy-3-methoxyphenyl) prop-2-enal], the “affinity to OBP14 (in words)” value on OBP14 [2] is reported as “did not show good affinity”. Further, the Kd at OBP14 [1] (setting [7]) was 8.06 µM; at OBP14 [1] (setting [8]) it was 9.1 ± 2.3 µM. Besides, the koff on OBP14 [1] (read-out: [ koff] / s^-1) turned out to be 0.003 s⁻¹. Moreover, on OBP14 [1], the kon turned out to be 370 ± 190 M⁻¹ s⁻¹.

`C=CCc1ccc(O)c(OC)c1` [Eugenol, 4-Allyl-2-methoxyphenol]: the koff on OBP14 [1], at OBP14 [1] (read-out: [ koff] / s^-1) and on OBP14 [1] (read-out: [koff] /s ^-1) was 0.003 s⁻¹ each time. Also, the “real-time response (ΔIDS) of the biosensor” value on OBP14 [1] (5 µM eugenol solution compared with a 10 fold higher concentrated methyl eugenol solution, same sensor device) is “significantly higher”. In addition, the Kd at OBP14 [1] (setting [3]) is 9.2 ± 0.7 µM; on OBP14 [1] (setting [8]), 9.2 ± 0.7 µM; on OBP14 [1] (setting [4]), 1.9 µM; at OBP14 [1] (setting [5]) it was 9.2 µM; on OBP14 [1] (setting [10]), 19 µM. In addition, the “10^2 [KA] /M^-1” value on OBP14 [1] (setting [6]) and on OBP14 [1] (setting [9]) was 1087 ± 91 10^2 M^-1 each time. For the same molecule, the “binding to OBP14 (in words)” value on OBP14 [1] is reported as “high affinity”. Besides, at OBP14 [1], the kon amounted to 326 ± 27 M⁻¹ s⁻¹.

As to `CC(C)=CCC/C(C)=C/CO` [Geraniol, (2E)-3,7-Dimethylocta-2,6-dien-1-ol], the Kd on OBP14 [1] (setting [3]) was 1120 ± 5 µM. In addition, the “10^2 [KA] /M^-1” value at OBP14 [1] (setting [6]) is on record as 8.96 ± 0.04 10^2 M^-1. In addition, the “binding to OBP14 (in words)” value on OBP14 [1] is listed as “moderate or weak binders”. Moreover, the koff at OBP14 [1] (read-out: [koff] /s ^-1) was determined as 0.0077 s⁻¹.

For `COc1cc(CC(=O)O)ccc1O` [Homovanillic acid, 2-(4-Hydroxy-3-methoxy-phenyl)acetic acid], the “affinity to OBP14 (in words)” value on OBP14 [2] is “did not show good affinity”. For the same molecule, the Kd at OBP14 [1] (setting [3]) is 6.5 ± 0.7 µM. For the same molecule, the “10^2 [KA] /M^-1” value at OBP14 [1] (setting [6]) is 1540 ± 140 10^2 M^-1. Moreover, the koff at OBP14 [1] (read-out: [koff] /s ^-1) stood at 0.0078 s⁻¹.

Turning to `CC(=O)OCCC(C)C` [Isoamyl acetate, 3-methylbutyl acetate], the Kd at OBP14 [1] (Table 1, KD = 1/KA from titration, Langmuir model, 1mM PBS, pH = 8.0, read-out: 10^- 6[KD] /M) was found to be 814 ± 58 µM. For the same molecule, the “10^2 [KA] /M^-1” value on OBP14 [1] (setting [6]) is listed as 12.33 ± 0.86 10^2 M^-1. Besides, at OBP14 [1] (Table 1, association rate constant from titration fit), the “[kon] /M^1s^-1” value was found to be 8.3 ± 0.6 M^1s^-1. The koff at OBP14 [1] (Table 1, dissociation rate constant from final buffer wash fit, read-out: [koff] /s ^-1) amounted to 0.0068 s⁻¹. Besides, at OBP14 [1], the “binding to OBP14 (in words)” value is “behave poorly”.

Regarding `C=CCc1ccc(OC)c(OC)c1` [Methyl eugenol, 1,2-Dimethoxy-4-prop-2-enylbenzene], the results for the Kd on OBP14 [1] (setting [8]) and on OBP14 [1] (setting [10]) were 520 ± 0.1 µM and 590 µM, respectively. Also, the “10^2 [KA] /M^-1” value on OBP14 [1] (setting [9]) is given as 19.23 ± 0.03 10^2 M^-1. Also, the kon on OBP14 [1] (setting [11]) stood at 8.92 ± 0.01 M⁻¹ s⁻¹. Also, the koff on OBP14 [1] (setting [12]) stood at 0.0046 s⁻¹. Besides, the “concentration at which equilibrium was achieved, relative to the other odorants” value at OBP14 [1] (titration curves Fig. 3, compared with three ligands with phenolic based structure) is given as “about 10 fold”.

Consider `COC(=O)c1ccc(O)c(OC)c1` [Methyl vanillate, Methyl 4-hydroxy-3-methoxybenzoate], for which the Kd amounted to 22 ± 4.5 µM on OBP14 [1] (Table 2, KD = 1/KA from titration, Langmuir model fit, read-out: 10^-6 [KD] /M); 10 µM on OBP14 [1] (from Langmuir isotherm of change in drain current ΔIDS vs odorant concentration [Od] (Fig. 1D), read-out: KD); 24 µM on OBP14 [1] (from Langmuir isotherm plot, half saturation concentration (50% surface coverage), read-out: KD); 30 µM at OBP14 [1] (from linear relationship between reaction rate constant k and odorant concentration (Fig. 1B), read-out: KD); 22 µM on OBP14 [1] (from the kinetic measurement (titration fitted with Langmuir model), read-out: KD). In addition, the “10^2 [KA] /M^-1” value at OBP14 [1] (setting [9]) is recorded as 479 ± 136 10^2 M^-1. Further, the kon on OBP14 [1] (setting [11]) was 239 ± 68 M⁻¹ s⁻¹. In addition, the koff on OBP14 [1] (setting [12]) stood at 0.005 s⁻¹.

As to `CC(=O)CCC=C(C)C` [Sulcatone, 6-Methylhept-5-en-2-one], the Kd on OBP14 [1] (setting [3]) amounted to 1410 ± 21 µM; at OBP14 [1] (setting [4]), 1500 µM; on OBP14 [1] (setting [5]) it was 1400 µM. For the same molecule, the “10^2 [KA] /M^-1” value on OBP14 [1] (setting [6]) was 7.07 ± 0.11 10^2 M^-1. Besides, the “binding to OBP14 (in words)” value on OBP14 [1] is listed as “behave poorly”. For the same molecule, the koff on OBP14 [1] (read-out: [koff] /s ^-1) turned out to be 0.0074 s⁻¹.

As to `COc1cc(C=O)ccc1O` [Vanillin, 4-Hydroxy-3-methoxybenzaldehyd], the Kd on OBP14 [1] (setting [7]) is 20.7 µM; on OBP14 [1] (setting [8]) it was 23.8 ± 6 µM. The kon at OBP14 [1] (setting [11]) is 191 ± 111 M⁻¹ s⁻¹. Moreover, the koff on OBP14 [1] (setting [12]) was 0.0038 s⁻¹.

Turning to `COc1cc(CCC(C)=O)ccc1O` [Vanillyl acetone, 4-(4-hydroxy-3-methoxyphenyl)butan-2-one], on OBP14 [1] (setting [9]), the “10^2 [KA] /M^-1” value is reported as 409.7 ± 0.3 10^2 M^-1. Further, at OBP14 [1] (read-out: 10^-6 [KD] /M), the Kd came out at 24.4 ± 0.02 µM. At OBP14 [1] (read-out: [ koff] / s^-1), the koff was found to be 0.007 s⁻¹. In addition, the kon at OBP14 [1] turned out to be 286.8 ± 0.2 M⁻¹ s⁻¹.
